Experimental data: patent US20260258084A1, “New Peptides as Selective IL-23 Receptor Antagonists” (Sanofi, priority 2022, published 2026)
Starred links: 1 amine or outer side, 2 acyl side, 3 side chain; linkers in the order of their positions; H or OH if unused. Positions of bridges follow the written chain, without caps; N, C: chain ends. Non-standard residues stand in square brackets, D forms with d. Residues, ends and D or L forms follow the SMILES beside them. *: point of attachment. X5 = CN(C(=O)CCC(=O)[*:3])[C@@H](CS[*:2])C(=O)[*:1]; X6 = O=C(CCC(=O)[*:3])N[C@@H](CS[*:2])C(=O)[*:1]; Trp(7-Me) = Cc1cccc2c(C[C@H](N)C(=O)O)c[nH]c12; X1 = O=C(CCCCN[*:3])N[C@@H](CS[*:2])C(=O)[*:1]; Trp(1-Me) = Cn1cc(C[C@H](N)C(=O)O)c2ccccc21; αMeLys(Me2) = CN(C)CCCC[C@](C)(N)C(=O)O; 2Nal = N[C@@H](Cc1ccc2ccccc2c1)C(=O)O; d2Nal = N[C@H](Cc1ccc2ccccc2c1)C(=O)O; 3Pal = N[C@@H](Cc1cccnc1)C(=O)O; Lys(Me) = CNCCCC[C@H](N)C(=O)O; αMeL = CC(C)C[C@](C)(N)C(=O)O; Suc = O=C(CCC(=O)[*:2])[*:1]; Thp = NC1(C(=O)O)CCOCC1; Me2NCH2CH2 = CN(C)CC*; Sar = CNCC(=O)O

Tests used:
[1] = test system: IL-23 induced STAT3 signaling in HEK-Blue™ IL-23 cells; assay: IL-23 induced STAT3 signaling in HEK-Blue IL-23 cells (SEAP reporter); assay type: cell-based; settings: human IL23 0.25 ng/ml, read-out: pSTAT3
Procedure, shortened: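 Secreted SEAP, read at OD 620-655 nm after 45 min QUANTI-Blue development, reports STAT3 activation. Beforehand, cells were exposed to peptide dilutions for 60 min at 37 °C and then to 0.25 ng/ml final human IL-23 overnight, at 10,000 cells/well.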

Pancreatin = assay: Protease stability in simulated intestinal fluid (Pancreatin-SIF, FaSSIF); assay type: in vitro ADME; settings: 1 μM peptide, 37° C.; for remaining at 1 h, 1 µM: 60 min, read-out: FaSSIF 60 (min), remaining percent of peptide; for remaining at 2 h, 1 µM: 120 min, read-out: FaSSIF 120 (min), remaining percent of peptide; for remaining at 4 h, 1 µM: 240 min, read-out: FaSSIF 240 (min), remaining percent of peptide
Procedure, shortened: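 LC-MS/MS peak areas at 0, 60, 120 and 240 min, normalised to time 0 as 100%, give percent remaining. Reactions used 1 μM final peptide at 37° C in pancreatin-SIF (1 mg pancreatin in 10 mL SIF concentrate) and were stopped with ethanol containing 0.1% HCOOH.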

[2] = target: T1, human interleukin-23 receptor (recombinant human IL-23R-Fc chimera) (Homo sapiens, UniProt Q5VWK5); assay: Human ELISA IL23/IL23R (assay for specific human IL23R antagonists); assay type: binding; settings: Table 10; read-out: Human ELISA IL23/IL23R IC50
T1 construct: Fc (IgG Fc fusion)
Procedure, shortened: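 Competition format: peptide dilutions compete for IL23R-Fc chimera (0.1 μg/ml final, 60 min, room temperature) binding to immobilized human IL23 coated at […] overnight at 4 °C. Read-out is fluorogenic HRP signal from goat anti-hu-IgG1 detecting captured receptor.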

Pepsin = test system: T2, Pepsin; assay: Protease stability in simulated gastric fluid (Pepsin-SGF, FaSSGF); assay type: in vitro ADME; settings: simulated gastric fluid with pepsin (Pepsin-SGF), 60 min, 1 μM peptide, 37° C., read-out: FaSSGF 60 (min), remaining percent of peptide
T2 construct: purchased Merck Millipore
Procedure, shortened: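 LCMS/MS peak areas, normalised to the time-0 sample as 100%, give percent remaining. Conditions: 37° C incubation of 1 μM final peptide in simulated gastric fluid with pepsin; ethanol/0.1% HCOOH quench at 0, 60, 120, 240 min.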

Row | SMILES | IC50 [1] | remaining at 1 h, 1 µM (Pancreatin) | remaining at 2 h, 1 µM (Pancreatin) | remaining at 4 h, 1 µM (Pancreatin) | IC50 [2] | remaining at 1 h, 1 µM (Pepsin)
1 | CC(=O)N[C@H]1CCCCNC(=O)[C@@H]2CSSC[C@H](NC(=O)[C@H](CC(C)C)NC(=O)[C@H](Cc3c[nH]c4c(C)cccc34)NC1=O)C(=O)N[C@@H](Cc1ccc(OCCN(C)C)cc1)C(=O)N[C@@H](Cc1ccc3ccccc3c1)C(=O)N[C@@](C)(CC(C)C)C(=O)N[C@H](C(=O)N[C@@H](C)C(=O)N[C@@H](Cc1cccnc1)C(=O)N(C)CC(N)=O)CCCCN(C)C(=O)CCC(=O)N2C [compound 70] (Ac-K[Trp(7-Me)]LCY(Me2NCH2CH2)[2Nal][αMeL][Lys(Me)]A[3Pal][Sar]-NH2; linker 1-4-8 via X5) | 3.94 nM | 94% | 90% | 87% | 2.07 nM | 78%
2 | CC(=O)N[C@H]1CCCCNC(=O)[C@@H]2CSSC[C@H](NC(=O)[C@H](CC(C)C)NC(=O)[C@H](Cc3c[nH]c4c(C)cccc34)NC1=O)C(=O)N[C@@H](Cc1ccc(OCCN(C)C)cc1)C(=O)N[C@@H](Cc1ccc3ccccc3c1)C(=O)N[C@@](C)(CC(C)C)C(=O)N[C@H](C(=O)N[C@@H](CC(N)=O)C(=O)N[C@@H](Cc1cccnc1)C(=O)N(C)CC(N)=O)CCCCN(C)C(=O)CCC(=O)N2C [compound 69] (Ac-K[Trp(7-Me)]LCY(Me2NCH2CH2)[2Nal][αMeL][Lys(Me)]N[3Pal][Sar]-NH2; linker 1-4-8 via X5) | 3.07 nM | 97% | 89% | 83% | 2.17 nM | 79%
3 | CC(=O)NCCCC[C@@H]1NC(=O)[C@H](Cc2cn(C)c3ccccc23)NC(=O)[C@@H](NC(C)=O)CCCCNC(=O)[C@@H]2CSSC[C@H](NC1=O)C(=O)N[C@@H](Cc1ccc(OCCN(C)C)cc1)C(=O)N[C@@H](Cc1ccc3ccccc3c1)C(=O)NC1(CCOCC1)C(=O)N[C@H](C(=O)N[C@@H](CC(N)=O)C(=O)N[C@@H](Cc1cccnc1)C(=O)N(C)CC(N)=O)CCC(=O)NCCCCC(=O)N2 [compound 126] (Ac-K[Trp(1-Me)]K(Ac)CY(Me2NCH2CH2)[2Nal][Thp]EN[3Pal][Sar]-NH2; linker 1-4-8 via X1) | 0.11 nM | 90% | 87% | 83% | 0.56 nM | 80%
4 | CC(=O)NCCCC[C@@H]1NC(=O)[C@H](Cc2c[nH]c3c(C)cccc23)NC(=O)[C@H]([C@@H](C)O)NC(=O)[C@H](CC(N)=O)NC(=O)[C@@H]2CSSC[C@H](NC1=O)C(=O)N[C@@H](Cc1ccc(OCCN(C)C)cc1)C(=O)N[C@@H](Cc1ccc3ccccc3c1)C(=O)N[C@@](C)(CCCCN(C)C)C(=O)N[C@H](C(=O)N[C@@H](CC(N)=O)C(=O)N[C@@H](Cc1cccnc1)C(=O)N(C)CC(N)=O)CCCCNC(=O)CCC(=O)N2 [compound 151] (CNT[Trp(7-Me)]K(Ac)CY(Me2NCH2CH2)[2Nal][αMeLys(Me2)]KN[3Pal][Sar]-NH2; disulfide 1-6; linker N-10 via Suc) | 0.06 nM | 97% | 97% | 96% | 0.61 nM | 101%
5 | CC(=O)NCCCC[C@@H]1NC(=O)[C@H](Cc2c[nH]c3c(C)cccc23)NC(=O)[C@@H](NC(C)=O)CCCCNC(=O)[C@@H]2CSSC[C@H](NC1=O)C(=O)N[C@@H](Cc1ccc(OCCN(C)C)cc1)C(=O)N[C@@H](Cc1ccc3ccccc3c1)C(=O)N[C@@](C)(CC(C)C)C(=O)N[C@H](C(=O)N[C@@H](CC(N)=O)C(=O)N[C@@H](Cc1cccnc1)C(=O)N(C)CC(N)=O)CCC(=O)NCCCCC(=O)N2 [compound 73] (Ac-K[Trp(7-Me)]K(Ac)CY(Me2NCH2CH2)[2Nal][αMeL]EN[3Pal][Sar]-NH2; linker 1-4-8 via X1) | 0.1 nM | 82% | 81% | 77% | 0.58 nM | 87%
6 | CC(=O)NCCCC[C@@H]1NC(=O)[C@H](Cc2c[nH]c3c(C)cccc23)NC(=O)[C@H]([C@@H](C)O)NC(=O)[C@H](CC(N)=O)NC(=O)[C@@H]2CSSC[C@H](NC1=O)C(=O)N[C@@H](Cc1ccc(OCCN(C)C)cc1)C(=O)N[C@@H](Cc1ccc3ccccc3c1)C(=O)N[C@@](C)(CCCCN(C)C)C(=O)N[C@H](C(=O)N[C@@H](CC(N)=O)C(=O)N[C@@H](Cc1cccnc1)C(=O)N(C)CC(N)=O)CCCCN(C)C(=O)CCC(=O)N2 [compound 156] (CNT[Trp(7-Me)]K(Ac)CY(Me2NCH2CH2)[2Nal][αMeLys(Me2)][Lys(Me)]N[3Pal][Sar]-NH2; disulfide 1-6; linker N-10 via Suc) | 0.08 nM | 99% | 99% | 97% | 0.61 nM | 100%
7 | CC(=O)N[C@H]1CCCCNC(=O)[C@@H]2CSSC[C@H](NC(=O)[C@H](CCC(N)=O)NC(=O)[C@H](Cc3c[nH]c4ccccc34)NC1=O)C(=O)N[C@@H](Cc1ccc(OCCN(C)C)cc1)C(=O)N[C@@H](Cc1ccc3ccccc3c1)C(=O)N[C@@](C)(CC(C)C)C(=O)N[C@H](C(=O)N[C@@H](CC(N)=O)C(=O)NCC(N)=O)CCC(=O)NCCCCC(=O)N2 [compound 31] (Ac-KWQCY(Me2NCH2CH2)[2Nal][αMeL]ENG-NH2; linker 1-4-8 via X1) | 5.23 nM | 83% | 72% | 55% | 0.36 nM | 99%
8 | CC(=O)NCCCC[C@@H]1NC(=O)[C@H](Cc2c[nH]c3c(C)cccc23)NC(=O)[C@@H](NC(C)=O)CCCCNC(=O)[C@@H]2CSSC[C@H](NC1=O)C(=O)N[C@@H](Cc1ccc(OCCN(C)C)cc1)C(=O)N[C@H](Cc1ccc3ccccc3c1)C(=O)N[C@@](C)(CCCCN(C)C)C(=O)N[C@H](C(=O)N[C@@H](CC(N)=O)C(=O)N[C@@H](Cc1cccnc1)C(=O)N(C)CC(N)=O)CCC(=O)NCCCCC(=O)N2 [compound 149] (Ac-K[Trp(7-Me)]K(Ac)CY(Me2NCH2CH2)[d2Nal][αMeLys(Me2)]EN[3Pal][Sar]-NH2; linker 1-4-8 via X1) | 0.04 nM | 95% | 99% | 97% | 0.64 nM | 101%
9 | CC(=O)NCCCC[C@@H]1NC(=O)[C@H](Cc2c[nH]c3c(C)cccc23)NC(=O)[C@@H](NC(C)=O)CCCCNC(=O)[C@@H]2CSSC[C@H](NC1=O)C(=O)N[C@@H](Cc1ccc(OCCN(C)C)cc1)C(=O)N[C@@H](Cc1ccc3ccccc3c1)C(=O)NC1(CCOCC1)C(=O)N[C@H](C(=O)N[C@@H](CC(N)=O)C(=O)N[C@@H](Cc1cccnc1)C(=O)N(C)CC(N)=O)CCCCNC(=O)CCC(=O)N2 [compound 105] (Ac-K[Trp(7-Me)]K(Ac)CY(Me2NCH2CH2)[2Nal][Thp]KN[3Pal][Sar]-NH2; linker 1-4-8 via X6) | 0.1 nM | 78% | 80% | 77% | 0.55 nM | 93%
10 | Cc1cccc2c(C[C@@H]3NC(=O)[C@H]([C@@H](C)O)NC(=O)[C@H](CC(N)=O)NC(=O)[C@@H]4CSSC[C@H](NC(=O)[C@H](CC(C)C)NC3=O)C(=O)N[C@@H](Cc3ccc(OCCN(C)C)cc3)C(=O)N[C@@H](Cc3ccc5ccccc5c3)C(=O)N[C@@](C)(CCCCN(C)C)C(=O)N[C@H](C(=O)N[C@@H](CC(N)=O)C(=O)N[C@@H](Cc3cccnc3)C(=O)N(C)CC(N)=O)CCCCNC(=O)CCC(=O)N4)c[nH]c12 [compound 154] (CNT[Trp(7-Me)]LCY(Me2NCH2CH2)[2Nal][αMeLys(Me2)]KN[3Pal][Sar]-NH2; disulfide 1-6; linker N-10 via Suc) | 0.08 nM | 99% | 97% | 96% | 0.52 nM | 96%
